From PubChem BioAssay (NCI)
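Dose response: 5 concentrations. Exposure: 48 h. Format: 96-well plates. Endpoint: linear interpolation; highest concentration if not reached. TGI: total growth inhibition.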

Legend:
Assay in all cases: NCI-60 cell line screen, 48 h
[1] = tested on: 786-0 renal
[2] = tested on: A498 renal
[3] = tested on: A549 NSCLC
[4] = tested on: ACHN renal
[5] = tested on: BT-549 breast
[6] = tested on: CAKI-1 renal
[7] = tested on: CCRF-CEM leukemia
[8] = tested on: COLO 205 colon
[9] = tested on: DU-145 prostate
[10] = tested on: EKVX NSCLC
[11] = tested on: HCC-2998 colon
[12] = tested on: HCT-116 colon
[13] = tested on: HCT-15 colon
[14] = tested on: HOP-62 NSCLC
[15] = tested on: HOP-92 NSCLC
[16] = tested on: HS 578T breast
[17] = tested on: HT29 colon
[18] = tested on: IGROV1 ovarian
[19] = tested on: K-562 leukemia
[20] = tested on: KM12 colon
[21] = tested on: M14 melanoma
[22] = tested on: MALME-3M melanoma
[23] = tested on: MCF7 breast
[24] = tested on: MDA-MB-231 breast
[25] = tested on: MDA-MB-435
[26] = tested on: MDA-N
[27] = tested on: MOLT-4 leukemia
[28] = tested on: NCI-H23 lung
[29] = tested on: NCI-H460 lung
[30] = tested on: NCI-H522 lung
[31] = tested on: NCI/ADR-RES ovarian
[32] = tested on: OVCAR-3 ovarian
[33] = tested on: OVCAR-4 ovarian
[34] = tested on: OVCAR-5 ovarian
[35] = tested on: OVCAR-8 ovarian
[36] = tested on: PC-3 prostate
[37] = tested on: RPMI-8226 leukemia
[38] = tested on: RXF 393 renal
[39] = tested on: SF-295 CNS
[40] = tested on: SK-MEL-2 melanoma
[41] = tested on: SK-MEL-28 melanoma
[42] = tested on: SK-MEL-5 melanoma
[43] = tested on: SK-OV-3 ovarian
[44] = tested on: SNB-19 CNS
[45] = tested on: SNB-75 CNS
[46] = tested on: SW-620 colon
[47] = tested on: T-47D breast
[48] = tested on: U251 CNS
[49] = tested on: UACC-257 melanoma
[50] = tested on: UACC-62 melanoma
[51] = tested on: UO-31 renal
[52] = tested on: LOX IMVI melanoma
[53] = tested on: NCI-H226 lung
[54] = tested on: SF-268 CNS
[55] = tested on: SN12C renal
[56] = tested on: TK-10 renal
[57] = tested on: HL-60(TB) leukemia
[58] = tested on: SF-539 CNS

`COC1OC(Cn2c(C)nc(Br)c2Br)C(O)C(O)C1O` (configuration not stated) was tested, and the TGI [1] was over 100 µM, the TGI [2] was over 100 µM and the TGI [3] was over 100 µM. It also gave a TGI [4] of over 100 µM, a TGI [5] of over 100 µM and a TGI [6] of over 100 µM. It also gave a TGI [7] of over 100 µM, a TGI [8] of over 100 µM and a TGI [9] of over 100 µM. The TGI [10] was over 100 µM, the TGI [11] was over 100 µM and the TGI [12] was over 100 µM. The TGI [13] was over 100 µM, the TGI [14] was over 100 µM and the TGI [15] was over 100 µM. The TGI [16] was over 100 µM, the TGI [17] was over 100 µM and the TGI [18] was over 100 µM. It also gave a TGI [19] of over 100 µM, a TGI [20] of over 100 µM and a TGI [21] of over 100 µM. For the same molecule, the TGI [22] was over 100 µM, the TGI [23] was over 100 µM and the TGI [24] was over 100 µM. For the same molecule, the TGI [25] was over 100 µM, the TGI [26] was over 100 µM and the TGI [27] was over 100 µM. For the same molecule, the TGI [28] was over 100 µM, the TGI [29] was over 100 µM and the TGI [30] was over 100 µM. The TGI [31] was over 100 µM, the TGI [32] was over 100 µM and the TGI [33] was over 100 µM. For the same molecule, the TGI [34] was over 100 µM, the TGI [35] was over 100 µM and the TGI [36] was over 100 µM. For the same molecule, the TGI [37] was over 100 µM, the TGI [38] was over 100 µM and the TGI [39] was over 100 µM. For the same molecule, the TGI [40] was over 100 µM, the TGI [41] was over 100 µM and the TGI [42] was over 100 µM. The TGI [43] was over 100 µM, the TGI [44] was over 100 µM and the TGI [45] was over 100 µM. The TGI [46] was over 100 µM, the TGI [47] was over 100 µM and the TGI [48] was over 100 µM. The TGI [49] was over 100 µM, the TGI [50] was over 100 µM and the TGI [51] was over 100 µM.

`Brc1cccc(Nc2ncnc3sc4c(c23)CCC2(C4)OCCO2)c1` was tested, and the TGI [1] was over 100 µM, the TGI [2] was 42 µM and the TGI [3] was over 100 µM. It also gave a TGI [4] of over 100 µM, a TGI [5] of 75.2 µM and a TGI [6] of over 100 µM. The TGI [8] was 35.6 µM, the TGI [9] was 50.1 µM and the TGI [10] was over 100 µM. For the same molecule, the TGI [11] was 72.1 µM, the TGI [12] was over 100 µM and the TGI [13] was over 100 µM. For the same molecule, the TGI [14] was over 100 µM, the TGI [15] was 48.6 µM and the TGI [16] was over 100 µM. For the same molecule, the TGI [17] was over 100 µM, the TGI [18] was 30.9 µM and the TGI [20] was 80.4 µM. The TGI [52] was 40.9 µM, the TGI [21] was 68.6 µM and the TGI [22] was over 100 µM. The TGI [23] was over 100 µM, the TGI [24] was over 100 µM and the TGI [25] was 87 µM. For the same molecule, the TGI [26] was over 100 µM, the TGI [53] was 77.6 µM and the TGI [28] was over 100 µM. For the same molecule, the TGI [29] was over 100 µM, the TGI [30] was 33.8 µM and the TGI [31] was 76.4 µM. The TGI [32] was over 100 µM, the TGI [33] was 94.5 µM and the TGI [34] was over 100 µM. It also gave a TGI [35] of over 100 µM, a TGI [36] of over 100 µM and a TGI [54] of over 100 µM. It also gave a TGI [39] of over 100 µM, a TGI [40] of 79.7 µM and a TGI [42] of 32.3 µM. The TGI [43] was over 100 µM, the TGI [55] was over 100 µM and the TGI [44] was over 100 µM. The TGI [45] was 80.9 µM, the TGI [46] was 28.9 µM and the TGI [47] was 40.9 µM. The TGI [56] was 68.9 µM, the TGI [48] was over 100 µM and the TGI [49] was 91.4 µM. It also gave a TGI [50] of 70.5 µM and a TGI [51] of over 100 µM.

`COC(=O)[C@]1(C)CCC[C@]2(C)[C@H]3CC[C@]4(C(C)C)OO[C@@H](O4)[C@]34O[C@@H]4C[C@H]21` was tested, and the TGI [1] was 3.49 µM, the TGI [3] was 3.56 µM and the TGI [4] was 1.75 µM. It also gave a TGI [5] of 10.9 µM, a TGI [6] of 0.927 µM and a TGI [7] of over 100 µM. For the same molecule, the TGI [8] was 5.2 µM, the TGI [9] was 3.07 µM and the TGI [10] was 3.71 µM. It also gave a TGI [11] of 4.88 µM, a TGI [12] of 3.03 µM and a TGI [13] of 7.06 µM. The TGI [57] was 4.88 µM, the TGI [14] was 7 µM and the TGI [15] was 4.14 µM. It also gave a TGI [16] of 8.65 µM, a TGI [17] of 3.91 µM and a TGI [18] of 0.336 µM. It also gave a TGI [19] of over 100 µM, a TGI [20] of 11.2 µM and a TGI [52] of 1.04 µM. The TGI [21] was 17.3 µM, the TGI [22] was 20.5 µM and the TGI [23] was 5.75 µM. It also gave a TGI [24] of 15 µM, a TGI [25] of 3.89 µM and a TGI [26] of 6.13 µM. The TGI [53] was 13.5 µM, the TGI [28] was 23.5 µM and the TGI [29] was 3.88 µM. It also gave a TGI [30] of 3.43 µM, a TGI [31] of 30.9 µM and a TGI [32] of 3.65 µM. It also gave a TGI [33] of 3.73 µM, a TGI [34] of 16.3 µM and a TGI [35] of 26.5 µM. For the same molecule, the TGI [36] was 3.11 µM, the TGI [37] was over 100 µM and the TGI [38] was 11.6 µM. For the same molecule, the TGI [54] was 5.31 µM, the TGI [39] was 8.77 µM and the TGI [58] was over 55.6 µM. For the same molecule, the TGI [40] was 29.1 µM, the TGI [41] was over 63.9 µM and the TGI [42] was 8.02 µM. It also gave a TGI [43] of 4.83 µM, a TGI [55] of 12 µM and a TGI [44] of 24.5 µM. It also gave a TGI [45] of 11.2 µM, a TGI [46] of over 33.7 µM and a TGI [47] of 3.84 µM. The TGI [56] was 12.2 µM, the TGI [48] was 13.5 µM and the TGI [49] was 32.1 µM. The TGI [50] was 17.7 µM and the TGI [51] was 1.46 µM.
